We go through 21 compounds from patent US9434719B2, “3-pyrimidin-4-yl-oxazolidin-2-ones as inhibitors of mutant IDH” (NOVARTIS AG, priority 2013, dated 2016).

Format in all cases: in vitro ADME
The nature of data set [1]: Metabolic stability in liver microsomes, Method I, rat. The note with it: 1 μM test compound; for microsomal CLint at 1 μM: male, Sprague-Dawley, liver microsomes; for microsomal CLint at 1 μM / microsomal CLint: rat; for microsomal CLint: microsomes. For orientation: Liver microsomes are a subcellular fraction often used to study metabolism.
Method: (§1) Determination of Metabolic Stability in Liver Microsomes—Method I
(§2) The in vitro metabolic stability assay was performed in a 96-well glass plate with shaking incubation at 37° C. A 10 mM DMSO stock solution of the test compound was sequentially diluted 1:1000 to yield a final reaction concentration of 1 μM in 50 mM KPi. […] 30 μL of the 10 μM solution containing the test compound was added to 120 μL of microsomal protein for 150 μL enzyme-compound mixture. The reaction was initiated by adding 150 μL of cofactor solution (2 mM NADPH, 4 mM MgCl in 50 mM KPi) to the enzyme-compound mixture, and the final reaction concentrations are listed in the table below.
(§3) At 0, 5, 10 and 30 minute time points in the reaction, reaction aliquots (50 μL) were removed and the reactions were terminated by the addition of acetonitrile (150 μL) containing a mass spectrometry internal standard (1 μM glyburide). The samples were centrifuged and the supernatants analyzed by LC-MS/MS for quantization of remaining compound.
(§4) Analysis of the samples was performed on a high performance liquid chromatography-tandem mass spectrometry (LC/MS) system consisting of a Thermo TSQ Quantum Ultra mass spectrometer, an H-ESI ion source, a CTC-HTS Pal autosampler, and an Agilent LC Pump.
(§5) Mobile phase A consisted of purified water containing 0.01% formic acid. Mobile phase B consisted of acetonitrile containing 0.01% formic acid. The flow rate was 1 mL/min. The injection volume was 10 μL. Compounds were detected using the Thermo QuikQuan software which collects intensity data for all fragments related to the molecular weight of the test compound. After collection of the raw data, the software identifies and integrates the peak of the strongest intensity.
(§6) Each microsomal elimination rate, kmic, was based on a 4-point elimination curve tested in singlet. LC-MS/MS raw data for a reaction plate was returned as integrated analyte peak areas for the test compound and internal standard used in the quench solution for the reaction to enable use of analyte:internal standard peak area ratios (PARs) for all data comparisons. The reaction time point (e.g. 0, 5, 20 or 30 minutes) was plotted versus the natural logarithm of percent test compound remaining relative to 0 minutes (based on relative PAR).
A short description of data set [2]: Metabolic stability in liver microsomes, Method I, mouse. The note with it: for microsomal CLint at 1 μM: male, CD-1, 1 μM test compound; for microsomal CLint: 1 μM test compound.
Method: as §1, §2, §3, §4, §5, §6
A short description of data set [3]: Metabolic stability in liver microsomes, Method I, human. The note with it: 1 μM test compound; for microsomal CLint at 1 μM: pooled liver microsomes.
Method: as §1, §2, §3, §4, §5, §6
Data set [4] can be described thus: Metabolic stability in liver microsomes, Method II, rat. The note with it: 1 μM test compound, NADPH + UDPGA; for microsomal CLint at 1 μM: male, Sprague-Dawley.
Method: Determination of Metabolic Stability in Liver Microsomes—Method II
The in vitro metabolic stability assay was performed in a 96-deep-well plate with incubation at 37° C. 10 mM DMSO stock solution of the test compound was diluted 1:20 in acetonitrile, followed by an additional 1:10 dilution in 100 mM potassium phosphate buffer (KPi) to yield a final reaction concentration of 1 μM. […] 290 μL of cofactor solution (1.7 mM NADPH, 1.7 mM UDPGA, 3.4 mM MgCl in 100 mM KPi) was added to 200 μL of microsomal protein for a final volume of 490 μL. The reaction was initiated by adding 10 μL of the 50 μM test solution to 490 μL of microsomal protein for a final volume 500 μL enzyme-compound mixture.
At 0, 5, 15 and 30 minute time points in the reaction, reaction aliquots (75 μL) were removed and the reactions were terminated by the addition of 50:50 acetonitrile/methanol solution (75 μL) containing a mass spectrometry internal standard (0.5 μM glyburide). The samples were centrifuged at 4000 RPM for 10 minutes. Supernatants (15 μL aliquots) were transferred to a new plate where each well contains 90 μL of deionized water. The supernatants solution were analyzed by UPLC/MS/MS for quantitation of parent remaining compound under multiple reactions monitoring mode (MRM) in positive mode.
Analysis of the samples was performed on an ultra-performance liquid chromatography-tandem mass spectrometry (UPLC/MS/MS) system consisting of an AB Sciex Qtrap 5500 mass spectrometer, AB Sciex Turbo V ion source, Waters Acquity Sample Organizer, Waters Acquity Column manager, Waters Acquity Sample manager, and a Waters Acquity Binary Solvent Manager. Chromatographic separation of analyte and internal standard was achieved using a reverse phase C-18 column (50×2.1 mm, 1.7 μm, Acquity UPLC BEH C-18) with the following UPLC mobile phases and elution gradient:
UPLC mobile phase A: 0.25% formic acid in 5% methanol; mobile phase B: 0.25% formic acid in 95% water.
The injection volume was 5 μL. Compounds were detected using Analyst 1.5.1 software which collects intensity data for all fragments related to the molecular weight of the test compound. After collection of the raw data, the software identifies and integrates the peak of the strongest intensity.
Each microsomal elimination rate, k, was based on a 4-point elimination curve tested in duplicates. LC-MS/MS raw data for a reaction plate was returned as integrated analyte peak areas for the test compound and internal standard used in the quench solution for the reaction to enable use of analyte:internal standard peak area ratios (PARs) for all data comparisons. The reaction time point (e.g. 0, 5, 15 and 30 minutes) was plotted versus the natural logarithm of percent test compound remaining relative to 0 minutes (based on relative PAR). The slope of this clearance plot, k, was used to calculate the in vitro half-life.
[formula] The intrinsic clearance value, CLint (expressed as μL/min/mg microsomal protein) calculation is shown below:
[formula] Where V=the incubation volume (mL) and M=the microsomal protein content in the incubation (mg)

Structures can show the parent of a compound that is named as a salt.

A word on the microsomal CLint: it is the rate of metabolic loss divided by the concentration. `Cc1ccc(-c2noc(C(C)Nc3ncc(F)c(N4C(=O)OC[C@@H]4[C@@H](C)O)n3)n2)cc1F` (single isomer, unassigned) [Example 122] had a microsomal CLint at 1 μM in data set [1] of 69.4 µL/min/mg.
Turning to `CC(Nc1nccc(N2C(=O)OC[C@@H]2[C@@H](C)O)n1)c1nc(-c2ccc3c(c2)OC(F)(F)O3)no1` (single isomer, unassigned) [Example 169], in data set [1], the “Rat microsomal stability CLint” value is 60.93 µL/min/mg and the microsomal CLint at 1 μM came to 68.8 µL/min/mg.
`CC(Nc1nccc(N2C(=O)OC[C@@H]2[C@@H](C)O)n1)c1nc(-c2ccc(C(F)(F)F)cc2)no1` (single isomer, unassigned) [Example 174] registered a microsomal CLint at 1 μM in data set [1] of 48.5 µL/min/mg.
For `CC(Nc1nccc(N2C(=O)OC[C@@H]2[C@@H](C)O)n1)c1nc(-c2ccc(C(F)(F)F)cc2)no1` (single isomer, unassigned) [Example 175], the intrinsic metabolic clearance (microsomal CLint) at 1 μM in data set [2] came out at 56.3 µL/min/mg; in data set [3], 39.8 µL/min/mg. Besides, in data set [1], the “Rat microsomal stability CLint” value stood at 50.51 µL/min/mg.
In data set [1], `CC(Nc1nccc(N2C(=O)OC[C@@H]2[C@@H](C)O)n1)c1nc(-c2ccc(OC(F)(F)F)cc2)no1` (single isomer, unassigned) [Example 181] registered a microsomal CLint at 1 μM of 56.6 µL/min/mg.
As to `C[C@H](Nc1ncc(F)c(N2C(=O)OC[C@@H]2CF)n1)c1cn(-c2ccc(C(F)F)cc2)cn1` [434 as TFA salt], the microsomal CLint in data set [2] was 10.7 µL/min/mg; in data set [1], 41 µL/min/mg; in data set [4], 10.8 µL/min/mg; in data set [3] it was under 7.7 µL/min/mg.
Regarding `C[C@H](Nc1nccc(N2C(=O)OC[C@@H]2[C@H](C)F)n1)c1cn(-c2ccc(C(F)F)cc2)cn1` [456 as TFA salt], the microsomal CLint in data set [1] was determined as 44.7 µL/min/mg; in data set [3], 16.8 µL/min/mg.
On to `C[C@H](Nc1nccc(N2C(=O)OC[C@@H]2CF)n1)c1cn(-c2ccc(Cl)c(F)c2)cn1` [473 as TFA salt], for which the microsomal CLint in data set [2] was 17.7 µL/min/mg; in data set [1], 72.5 µL/min/mg; in data set [4], 33.3 µL/min/mg; in data set [3], under 7.7 µL/min/mg.
On to `C[C@H](Nc1nccc(N2C(=O)OC[C@@H]2CF)n1)c1cn(-c2ccc(C(F)F)c(F)c2)cn1` [475 as TFA salt], for which the microsomal CLint in data set [2] is 15.7 µL/min/mg; in data set [1], 54 µL/min/mg; in data set [4] it was 16.2 µL/min/mg; in data set [3], under 7.7 µL/min/mg.
Take `C[C@H](Nc1nccc(N2C(=O)OC[C@@H]2[C@H](C)O)n1)c1ccc(CN2CCN(C)C(C)(C)C2)c(F)c1` [Example 48, (R)-3-(2-((S)-1-(3-fluoro-4-((3,3,4-trimethylpiperazin-1-yl)methyl)phenyl)ethylamino)pyrimidin-4-yl)-4-((S)-1-hydroxyethyl)oxazolidin-2-one]: the microsomal CLint at 1 μM in data set [2] was found to be 173 µL/min/mg; in data set [1] it was 49.1 µL/min/mg; in data set [3] it was 121 µL/min/mg.
`C[C@H](Nc1nccc(N2C(=O)OC[C@@H]2[C@@H](C)O)n1)c1ccc(-c2ccnc(C(F)(F)F)c2)cn1` [Example 55, (R)-4-((R)-1-hydroxyethyl)-3-(2-(((S)-1-(2′-(trifluoromethyl)-[3,4′-bipyridin]-6-yl)ethyl)amino)pyrimidin-4-yl)oxazolidin-2-one]: the values for the intrinsic clearance (microsomal CLint) at 1 μM in data set [2] and in data set [1] were 63.1 µL/min/mg and 58.4 µL/min/mg, respectively.
Consider `Cc1cc(-c2ccnc(C(F)(F)F)c2)cnc1[C@H](C)Nc1nccc(N2C(=O)OC[C@@H]2[C@@H](C)O)n1` [Example 61, (R)-4-((R)-1-hydroxyethyl)-3-(2-(((S)-1-(5-methyl-2′-(trifluoromethyl)-[3,4′-bipyridin]-6-yl)ethyl)amino)pyrimidin-4-yl)oxazolidin-2-one], for which the microsomal CLint at 1 μM in data set [2] is 67.7 µL/min/mg; in data set [1], 34.6 µL/min/mg; in data set [3], 66.4 µL/min/mg.
In the case of `C[C@H](Nc1nccc(N2C(=O)OC[C@@H]2[C@@H](C)N)n1)c1cnc(-c2ccc(Cl)cc2)s1` [Example 380, (S)-4-((R)-1-aminoethyl)-3-(2-(((S)-1-(2-(4-chlorophenyl)thiazol-5-yl)ethyl)amino)pyrimidin-4-yl)oxazolidin-2-one], the microsomal CLint at 1 μM came out at 51 µL/min/mg in data set [2], 42.9 µL/min/mg in data set [1], 30.2 µL/min/mg in data set [4] and 31.1 µL/min/mg in data set [3].
In the same order, the values of `C[C@H](Nc1nccc(N2C(=O)OC[C@@H]2[C@H](C)F)n1)c1cn(-c2ccc(F)cc2)cn1` [Example 401, (R)-4-((S)-1-fluoroethyl)-3-(2-(((S)-1-(1-(4-fluorophenyl)-1H-imidazol-4-yl)ethyl)amino)pyrimidin-4-yl)oxazolidin-2-one] are 33.1 µL/min/mg, 30.4 µL/min/mg, 92.4 µL/min/mg and under 7.7 µL/min/mg.
On the same counts, the results for `C[C@H](Nc1nccc(N2C(=O)OC[C@@H]2CF)n1)c1cn(-c2ccc(Cl)cc2)cn1` [Example 404, (R)-3-(2-(((S)-1-(1-(4-chlorophenyl)-1H-imidazol-4-yl)ethyl)amino)pyrimidin-4-yl)-4-(fluoromethyl)oxazolidin-2-one] are 18.7 µL/min/mg, 44.6 µL/min/mg, 75.4 µL/min/mg and under 7.7 µL/min/mg.
`C[C@H](Nc1nccc(N2C(=O)OC[C@@H]2[C@H](C)F)n1)c1ncc(-c2ccnc(C(F)(F)F)c2)cc1F` [Example 463, (R)-3-(2-(((S)-1-(5-fluoro-2′-(trifluoromethyl)-[3,4′-bipyridin]-6-yl)ethyl)amino)pyrimidin-4-yl)-4-((S)-1-fluoroethyl)oxazolidin-2-one]: the microsomal CLint at 1 μM in data set [2] is 35.5 µL/min/mg; in data set [1] it was 50.8 µL/min/mg; in data set [4], 49.8 µL/min/mg; in data set [3], 28.3 µL/min/mg.
`C[C@H](Nc1nccc(N2C(=O)OC[C@@H]2[C@H](C)F)n1)c1ncc(-c2cccc(C(F)(F)F)c2F)cn1` [Example 467, (R)-3-(2-(((S)-1-(5-(2-fluoro-3-(trifluoromethyl)phenyl)pyrimidin-2-yl)ethyl)amino)pyrimidin-4-yl)-4-((S)-1-fluoroethyl)oxazolidin-2-one]: the microsomal CLint at 1 μM stood at 275 µL/min/mg in data set [2], 75.6 µL/min/mg in data set [1], 85.4 µL/min/mg in data set [4] and 53.3 µL/min/mg in data set [3].
As for `C[C@H](Nc1nccc(N2C(=O)OC[C@@H]2[C@H](C)F)n1)c1ccc(-c2ccnc(C(F)(F)F)c2)cn1` [Example 468, (R)-4-((S)-1-fluoroethyl)-3-(2-(((S)-1-(2′-(trifluoromethyl)-[3,4′-bipyridin]-6-yl)ethyl)amino)pyrimidin-4-yl)oxazolidin-2-one], the results for the microsomal CLint at 1 μM in data set [2], in data set [1] and in data set [3] were 28.9 µL/min/mg, 30.5 µL/min/mg and 70.1 µL/min/mg, respectively.
Consider `Cc1cc(-c2cnc([C@H](C)Nc3nccc(N4C(=O)OC[C@@H]4[C@H](C)F)n3)nc2)ccc1F` [Example 469, (R)-3-(2-(((S)-1-(5-(4-fluoro-3-methylphenyl)pyrimidin-2-yl)ethyl)amino)pyrimidin-4-yl)-4-((S)-1-fluoroethyl)oxazolidin-2-one], for which, in data set [1], the microsomal CLint at 1 μM turned out to be 132 µL/min/mg.
Regarding `Cc1cc([C@H](C)Nc2ncc(F)c(N3C(=O)OC[C@@H]3[C@H](C)F)n2)ncc1-c1ccnc(C(F)(F)F)c1` [Example 470, (R)-3-(5-fluoro-2-(((S)-1-(4-methyl-2′-(trifluoromethyl)-[3,4′-bipyridin]-6-yl)ethyl)amino)pyrimidin-4-yl)-4-((S)-1-fluoroethyl)oxazolidin-2-one], the results for the microsomal CLint at 1 μM in data set [2], in data set [1] and in data set [3] were 47.3 µL/min/mg, 52.8 µL/min/mg and 83.6 µL/min/mg, respectively.
For the compound `C[C@H](Nc1ncc(F)c(N2C(=O)OC[C@@H]2CF)n1)c1ncc(-c2ccc(Cl)cc2)o1` [Example 480, (R)-3-(2-(((S)-1-(5-(4-chlorophenyl)oxazol-2-yl)ethyl)amino)-5-fluoropyrimidin-4-yl)-4-(fluoromethyl)oxazolidin-2-one], the microsomal CLint at 1 μM in data set [2] amounted to 51.5 µL/min/mg; in data set [1] it was 65.2 µL/min/mg; in data set [3], 35.6 µL/min/mg.
